Reference: ChEMBL document CHEMBL1201862, “PubChem BioAssay data set” (2004)
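Cultured in 96-well plates, cells were exposed to test compound for 48 hours across five concentrations. GI50 is the concentration that inhibits growth by half.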 Calls of active or inactive are those of the source. Rule as the data show it: active = GI50 up to about 1.1 µM and inactive = higher.

Assays:
Assay in all cases: NCI tumour cell line growth inhibition, 48 h
NCI-H226 = test system: NCI-H226
SW-620 = test system: SW-620
IGROV-1 = test system: IGROV-1
SF-539 = test system: SF-539
A498 = test system: A498
HOP-62 = test system: HOP-62
HCT-116 = test system: HCT-116
KM12 = test system: KM12
RPMI-8226 = test system: RPMI-8226
HCC 2998 = test system: HCC 2998
LOX IMVI = test system: LOX IMVI
UACC-257 = test system: UACC-257
M14 = test system: M14
HOP-18 = test system: HOP-18
NCI-H522 = test system: NCI-H522
CAKI-1 = test system: CAKI-1
SK-MEL-2 = test system: SK-MEL-2
PC-3 = test system: PC-3
T47D = test system: T47D
DU-145 = test system: DU-145

SMILES | GI50 (NCI-H226) | GI50 (SW-620) | GI50 (IGROV-1) | GI50 (SF-539) | GI50 (A498) | GI50 (HOP-62) | GI50 (HCT-116) | GI50 (KM12) | GI50 (RPMI-8226) | GI50 (HCC 2998) | GI50 (LOX IMVI) | GI50 (UACC-257) | GI50 (M14) | GI50 (HOP-18) | GI50 (NCI-H522) | GI50 (CAKI-1) | GI50 (SK-MEL-2) | GI50 (PC-3) | GI50 (T47D) | GI50 (DU-145)
O=C(Nc1ccccc1)Oc1ccccc1C1CCCCC1 | 13.2 µM (inactive) | 25.5 µM (inactive) | 24.8 µM (inactive) | 25.8 µM (inactive) | 30.6 µM (inactive) | 18.1 µM (inactive) | 21.9 µM (inactive) | 26.8 µM (inactive) | 19 µM (inactive) | 25.9 µM (inactive) | 13.8 µM (inactive) | 16.9 µM (inactive) | 23.6 µM (inactive) | 29.3 µM (inactive) |  |  |  |  |  | 
COC1(OC)CC2C(=O)N(Cc3ccccc3)C1C(S(=O)(=O)c1ccccc1)C2S(=O)(=O)c1ccccc1 (stereo not given) | 19.7 µM (inactive) | 2.13 µM (inactive) | 17.2 µM (inactive) | 14 µM (inactive) | 18.2 µM (inactive) | > 100 µM (inactive) | 16.4 µM (inactive) | 16.4 µM (inactive) | 15.9 µM (inactive) | 17.1 µM (inactive) | 10.2 µM (inactive) | 7.38 µM (inactive) | 14.8 µM (inactive) | 17.2 µM (inactive) | 2.02 µM (inactive) | 13.8 µM (inactive) |  |  |  | 
COc1cc(CO)cc2c1[nH]c1ccccc12 [KOENOLINE] | 1.73 µM (inactive) | > 25 µM (inactive) | > 25 µM (inactive) | > 25 µM (inactive) |  | > 25 µM (inactive) | > 25 µM (inactive) | > 25 µM (inactive) | > 25 µM (inactive) | > 25 µM (inactive) | > 25 µM (inactive) |  | > 25 µM (inactive) | > 25 µM (inactive) | 24.6 µM (inactive) |  | > 25 µM (inactive) |  |  | 
C[C@H](NS(=O)(=O)c1ccc(NC(=O)c2ccccc2)cc1)C(=O)O |  | > 100 µM (inactive) | > 100 µM (inactive) | > 100 µM (inactive) | > 100 µM (inactive) |  |  | > 100 µM (inactive) | > 100 µM (inactive) | > 100 µM (inactive) | > 100 µM (inactive) | > 100 µM (inactive) | > 100 µM (inactive) | > 100 µM (inactive) | > 100 µM (inactive) | > 100 µM (inactive) | > 100 µM (inactive) |  |  | 
COc1cc2c(C)cc(O)cc2c2cc(O)c(C)cc12 | 13.5 µM (inactive) | 10.2 µM (inactive) | 14.1 µM (inactive) | 9.14 µM (inactive) | 11.2 µM (inactive) | 5.57 µM (inactive) | 10.7 µM (inactive) | 5.24 µM (inactive) | 1.91 µM (inactive) | 13.5 µM (inactive) | 2.23 µM (inactive) | 12.5 µM (inactive) | 1.94 µM (inactive) |  | 13.7 µM (inactive) | 11.7 µM (inactive) | 14.8 µM (inactive) | 9.57 µM (inactive) | 10.1 µM (inactive) | 10.9 µM (inactive)
CCOC(=O)c1[nH]c(Br)c(-c2ccc(Br)cc2)c1Br | 1.31 µM (inactive) | 0.555 µM (active) | 0.601 µM (active) | 0.441 µM (active) | 1.61 µM (inactive) | 0.671 µM (active) | 0.376 µM (active) | 0.459 µM (active) | 6.73 µM (inactive) | 5.79 µM (inactive) | 0.446 µM (active) | 0.671 µM (active) | 0.386 µM (active) |  | 0.378 µM (active) | 0.8 µM (active) | 0.307 µM (active) | 0.705 µM (active) | 2.39 µM (inactive) | 1.66 µM (inactive)
CCOC(=O)C1=NOC2(C=C(Br)C(=O)C(Br)=C2)C1 | 25.8 µM (inactive) | 0.37 µM (active) | 7.36 µM (inactive) | 4.43 µM (inactive) | 20.1 µM (inactive) | 6.41 µM (inactive) | 1.1 µM (active) | 13.4 µM (inactive) | 0.217 µM (active) | 1.79 µM (inactive) | 2.47 µM (inactive) | 1.34 µM (inactive) | 1.67 µM (inactive) |  | 0.335 µM (active) | 1.3 µM (inactive) | 6.84 µM (inactive) | 2.29 µM (inactive) | 1.21 µM (inactive) | 6.7 µM (inactive)
